How the values were obtained:
Assay type in all cases: in vivo
[1] = test system: Leptosphaeria nodorum; assay: Wheat glume blotch (LEPTNO) disease control; conditions: 100 ppm, 1 Day Protectant
Protocol: All fungicides were evaluated using the aforementioned method for their activity vs. all target diseases, unless stated otherwise. Wheat leaf blotch and brown rust activity were also evaluated using track spray applications, in which case the fungicides were formulated as EC formulations, containing 0.1% Trycol 5941 in the spray solutions. Wheat plants (variety Yuma) were grown from seed in a greenhouse in 50% mineral soil/50% soil-less Metro mix until the first leaf was fully emerged, with 7-10 seedlings per pot. These plants were inoculated with an aqueous spore suspension of Zymoseptoria tritici either prior to or after fungicide treatments. After inoculation the plants were kept in 100% relative humidity (one day in a dark dew chamber followed by two to three days in a lighted dew chamber at 20° C.) to permit spores to germinate and infect the leaf. The plants were then transferred to a greenhouse set at 20° C. for disease to develop. When disease symptoms were fully expressed on the 1st leaves of untreated plants, infection levels were assessed on a scale of 0 to 100 percent disease severity. Percent disease control was calculated using the ratio of disease severity on treated plants relative to untreated plants. Example C: Evaluation of Fungicidal Activity: Wheat Glume Blotch (Leptosphaeria nodorum; Bayer Code […]) Wheat plants (variety Yuma) were grown from seed in a greenhouse in 50% mineral soil/50% soil-less Metro mix until the first leaf was fully emerged, with 7-10 seedlings per pot. These plants were inoculated with an aqueous spore suspension of Leptosphaeria nodorum 24 hr after fungicide treatments. After inoculation the plants were kept in 100% relative humidity (one day in a dark dew chamber followed by two days in a lighted dew chamber at 20° C.) to permit spores to germinate and infect the leaf. The plants were then transferred to a greenhouse set at 20° C. for disease to develop. Fungicide formulation, application and disease assessment followed the procedures as described in the Example A.

[2] = test system: Puccinia triticina; assay: Wheat brown rust (PUCCRT) disease control on wheat seedlings; parameters: key to PUCCRT 3DC, HV activity at 100 ppm (% control rating) / PUCCRT disease control, 3DC / PUCCRT 1DP disease control rating, HV activity / PUCCRT 3DC disease control rating, HV activity / PUCCRT 3DC, LV activity at 125.1 g/H (% Control rating) / PUCCRT 1DP, LV activity at 125.1 g/H (% Control rating) / PUCCRT 3DC disease control rating, LV activity at 125.1 g/H / PUCCRT 1DP disease control rating, LV activity at 125.1 g/H / PUCCRT 3DC disease control rating, HV activity at 100 ppm / PUCCRT 1DP disease control rating, HV activity at 100 ppm / HV activity at 100 ppm PUCCRT 3DC (disease control rating) / LV activity at 125.1 g/H PUCCRT 1DP (disease control rating) / LV activity at 125.1 g/H PUCCRT 3DC (disease control rating): A: > 80; B: ≤ 80; C: Not Tested; D: No Activity Observed in the Reported Assay
[3] = test system: Pyricularia oryzae; conditions: 100 ppm; 1 Day Protectant; rice
[4] = test system: Venturia inaequalis; assay: Apple scab (VENTIN) disease control; conditions: 100 ppm, 1 Day Protectant
Protocol: All fungicides were evaluated using the aforementioned method for their activity vs. all target diseases, unless stated otherwise. Wheat leaf blotch and brown rust activity were also evaluated using track spray applications, in which case the fungicides were formulated as EC formulations, containing 0.1% Trycol 5941 in the spray solutions. Wheat plants (variety Yuma) were grown from seed in a greenhouse in 50% mineral soil/50% soil-less Metro mix until the first leaf was fully emerged, with 7-10 seedlings per pot. These plants were inoculated with an aqueous spore suspension of Zymoseptoria tritici either prior to or after fungicide treatments. After inoculation the plants were kept in 100% relative humidity (one day in a dark dew chamber followed by two to three days in a lighted dew chamber at 20° C.) to permit spores to germinate and infect the leaf. The plants were then transferred to a greenhouse set at 20° C. for disease to develop. When disease symptoms were fully expressed on the 1st leaves of untreated plants, infection levels were assessed on a scale of 0 to 100 percent disease severity. Percent disease control was calculated using the ratio of disease severity on treated plants relative to untreated plants. […] Seedlings with two expanding young leaves at the top (older leaves at bottom of the plants were trimmed) were used in the test. Plants were inoculated with a spore suspension of Venturia inaequalis 24 hr after fungicide treatment and kept in a 22° C. dew chamber with 100% relative humidity for 48 hr, and then moved to a greenhouse set at 20° C. for disease to develop. Fungicide formulation, application and disease assessment on the sprayed leaves followed the procedures as described in the Example A.

[5] = low volume application, 125.1 g/H, 1 Day Protectant
[6] = low volume application, 125.1 g/H, 3 Day Curative

SMILES | LEPTNO disease control, 1DP [1] | PYRIOR disease control, 1DP [3] | VENTIN disease control, 1DP [4] | PUCCRT 1DP, LV activity at 125.1 g/H (% Control rating) [2, 5] | PUCCRT 3DC, LV activity at 125.1 g/H (% Control rating) [2, 6] | further results
CCCOC(CC)C(Oc1ccccc1)C(C)OC(=O)C(C)NC(=O)c1nccc(OC)c1OCOC(C)=O (centres unmarked) [Cmpd 446] | A (> 80) |  |  |  |  | PUCCRT 1DP disease control rating, HV activity ([2]; HV application at 100 ppm, 1 Day Protectant, wheat brown rust): A (> 80); PUCCRT 3DC disease control rating, HV activity ([2]; HV application at 100 ppm, 3 Day Curative, wheat brown rust): A (> 80); PUCCRT 1DP disease control rating, LV activity ([2]; Low volume application at 125.1 g/H, 1 Day Protectant, wheat brown rust): A (> 80); PUCCRT 3DC disease control rating, LV activity ([2]; Low volume application at 125.1 g/H, 3 Day Curative, wheat brown rust): A (> 80)
COc1ccnc(C(=O)N[C@@H](C)C(=O)O[C@@H](C)[C@H](Oc2ccccc2)C(C)C)c1OCOC(C)=O [Cmpd 475] | A (> 80) | A (> 80) | A (> 80) | A (> 80) | A (> 80) | 
CC[C@@H](CCOC)[C@@H](Oc1ccccc1)[C@H](C)OC(=O)[C@H](C)NC(=O)c1nccc(OC)c1OCOC(C)=O [Cmpd 476] | A (> 80) | A (> 80) |  | A (> 80) | A (> 80) | 
CCC(CC)[C@@H](Oc1ccccc1)[C@H](C)OC(=O)[C@H](C)NC(=O)c1nccc(OC)c1OCOC(C)=O [Cmpd 477] | A (> 80) | A (> 80) | B (≤ 80) | A (> 80) | A (> 80) | 
COc1ccnc(C(=O)N[C@@H](C)C(=O)O[C@@H](C)[C@H](Oc2ccccc2)C(C)C)c1OC(C)=O [Cmpd 478] | A (> 80) | A (> 80) |  | A (> 80) | A (> 80) | 
CC[C@@H](CCOC)[C@@H](Oc1ccccc1)[C@H](C)OC(=O)[C@H](C)NC(=O)c1nccc(OC)c1OC(C)=O [Cmpd 482] | A (> 80) | A (> 80) |  | A (> 80) | A (> 80) | 
COc1ccnc(C(=O)N[C@@H](C)C(=O)O[C@H](C)[C@@H](Oc2ccccc2)c2ccccc2)c1OCOC(C)=O [Cmpd 547] |  |  | B (≤ 80) | A (> 80) | A (> 80) | 
COc1ccnc(C(=O)N[C@H](C)C(=O)O[C@H](C)[C@@H](Oc2ccccc2)C(C)C)c1OCOC(C)=O [Cmpd 548] |  |  | B (≤ 80) | D | D | 
COc1ccnc(C(=O)N[C@H](C)C(=O)O[C@H](C)[C@@H](Oc2ccccc2)c2ccccc2)c1OCOC(C)=O [Cmpd 549] |  |  | B (≤ 80) | D | D | 
COc1ccnc(C(=O)N[C@@H](C)C(=O)O[C@@H](C)[C@@H](Oc2ccccc2)C(C)C)c1OCOC(C)=O [Cmpd 552] |  |  | B (≤ 80) | A (> 80) | A (> 80) | 
COc1ccnc(C(=O)N[C@@H](C)C(=O)O[C@@H](C)[C@@H](CC(C)C)Oc2ccccc2)c1OCOC(C)=O [Cmpd 557] |  |  | B (≤ 80) | A (> 80) | A (> 80) | 
COc1ccnc(C(=O)N[C@H](C)C(=O)O[C@@H](C)[C@H](Oc2ccccc2)C(C)C)c1OCOC(C)=O [Cmpd 558] |  |  | B (≤ 80) | D | B (≤ 80) | 
COc1ccnc(C(=O)N[C@H](C)C(=O)O[C@@H](C)[C@@H](Oc2ccccc2)C(C)C)c1OCOC(C)=O [Cmpd 559] |  |  | B (≤ 80) | D | D | 
COc1ccnc(C(=O)N[C@H](C)C(=O)O[C@H](C)[C@H](Oc2ccccc2)C(C)C)c1OCOC(C)=O [Cmpd 560] |  |  | B (≤ 80) | D | D | 
COc1ccnc(C(=O)N[C@@H](C)C(=O)O[C@@H](C)[C@H](Oc2cccc(Cl)c2)C(C)C)c1OC(C)=O [Cmpd 566] | A (> 80) |  |  | A (> 80) | A (> 80) | 
COc1ccnc(C(=O)N[C@@H](C)C(=O)O[C@@H](C)[C@H](Oc2cccc(F)c2)c2ccccc2)c1OCOC(C)=O [Cmpd 574] | A (> 80) | A (> 80) |  | A (> 80) | A (> 80) | 
CCC(CC)[C@@H](Oc1ccc(F)cc1)[C@H](C)OC(=O)[C@H](C)NC(=O)c1nccc(OC)c1OCOC(C)=O [Cmpd 587] | A (> 80) | A (> 80) |  | A (> 80) | A (> 80) | 
COc1ccnc(C(=O)N[C@@H](C)C(=O)O[C@@H](C)[C@H](Oc2cc(F)cc(Cl)c2)C(C)C)c1OCOC(C)=O [Cmpd 617] | A (> 80) |  |  | A (> 80) | A (> 80) | 
COc1ccnc(C(=O)N[C@@H](C)C(=O)O[C@@H](C)[C@H](Oc2cccc(Cl)c2)c2ccccc2)c1OCOC(C)=O [Cmpd 637] | B (≤ 80) | B (≤ 80) |  | A (> 80) | B (≤ 80) | 
COc1ccnc(C(=O)N[C@@H](C)C(=O)O[C@@H](C)[C@H](Oc2ccccc2Cl)c2ccccc2)c1OC(C)=O [Cmpd 640] | A (> 80) | A (> 80) |  | A (> 80) | A (> 80) | 
CCC(C)C(Oc1ccccc1)C(C)OC(=O)C(C)NC(=O)c1nccc(OC)c1OC(C)=O (centres unmarked) [Cmpd 691] | A (> 80) |  |  |  |  | PUCCRT 1DP disease control rating, LV activity at 125.1 g/H ([2]; low volume application, 125.1 g/H, 1 day protectant): A (> 80); PUCCRT 3DC disease control rating, LV activity at 125.1 g/H ([2]; low volume application, 125.1 g/H, 3 day curative): A (> 80)
COc1ccnc(C(=O)N[C@@H](C)C(=O)O[C@@H](C)[C@@H](CC(C)C)Oc2ccccc2)c1OCOC(=O)C(C)C [Cmpd 1101] | B (≤ 80) | B (≤ 80) |  |  |  | LV activity at 125.1 g/H PUCCRT 1DP (disease control rating) ([2]; low volume application, 125.1 g/H, 1 Day Protectant, wheat brown rust): A (> 80); LV activity at 125.1 g/H PUCCRT 3DC (disease control rating) ([2]; low volume application, 125.1 g/H, 3 Day Curative, wheat brown rust): A (> 80)
